Experiment [1] deals with P-Akt (S473). Description: Cell based AlphaLISA assay, inhibition of P-Akt (S473) (mTORC2 substrate phosphorylation) in MDA-MB-468 cells. Particulars: Homo sapiens, MDA-MB-468, 4 h, AlphaLISA, two to four hours at 37° C., read-out: pIC50 for Inhibition of mTORC1 and mTORC2 Substrate Phosphorylation, p-AKT 1/2/3 -(S473) (converted). Put shortly:
(§1)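 AlphaLISA SureFire Ultra read-out of P-4E-BP1 (T37/46), P-P70S6K (T389) and P-Akt (S473) in MDA-MB-468 cells after compound treatment; cells lysed in kit buffer. Alpha signal read in duplicate; IC50 from normalized concentration-response regression with control-based normalization.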

In experiment [2] the test system is P-4E-BP1 (T37/46). The experiment is described as follows: Cell based AlphaLISA assay, inhibition of P-4E-BP1 (T37/46) (mTORC1 substrate phosphorylation) in MDA-MB-468 cells. Particulars: Homo sapiens, MDA-MB-468, 4 h, AlphaLISA, two to four hours at 37° C., read-out: pIC50 for Inhibition of mTORC1 and mTORC2 Substrate Phosphorylation, P-4E-BP1-(T37/46) (converted). Put shortly:
as §1
(In general: Alpha assays give light when donor and acceptor beads are brought close together.)

Experiment [3] has as its system P-P70S6K (T389). The experiment is described as follows: Cell based AlphaLISA assay, inhibition of P-P70S6K (T389) (mTORC1 substrate phosphorylation) in MDA-MB-468 cells. The following applies: Homo sapiens, 4 h, AlphaLISA, two to four hours at 37° C., read-out: pIC50 for Inhibition of mTORC1 and mTORC2 Substrate Phosphorylation, P-P70S6K-(T389) (converted). Put shortly:
as §1

Molecules are shown by their SMILES.

As to `CO/N=C1/C[C@@H]([C@H](C)C[C@@H]2CC[C@H](n3cc(COC(=O)NCCOCCOCCOCCC(=O)NCCOCCOCCOCCC(=O)NCCCCn4nc(-c5ccc6oc(N)nc6c5)c5c(N)ncnc54)nn3)[C@H](OC)C2)OC(=O)[C@@H]2CCCCN2C(=O)C(=O)[C@]2(O)O[C@@H](CC[C@H]2C)C[C@H](OC)/C(C)=C/C=C/C=C/[C@@H](C)C[C@@H](C)C(=O)[C@H](OC)[C@H](O)/C(C)=C/[C@H]1C` [Example 153], the IC50 is > 1000 nM in experiment [1], 31.6 to 1000 nM in experiment [2] and 1 to 10 nM in experiment [3].
Consider `CO[C@H]1C[C@@H]2CC[C@@H](C)[C@@](O)(O2)C(=O)C(=O)N2CCCC[C@H]2C(=O)O[C@H]([C@H](C)C[C@@H]2CC[C@H](n3cc(COC(=O)NCCOCCOCCOCCC(=O)NCCOCCOCCC(=O)NCCCCn4nc(-c5ccc6oc(N)nc6c5)c5c(N)ncnc54)nn3)[C@H](OC)C2)C/C(=N/OCc2ccccc2)[C@H](C)/C=C(\C)[C@@H](O)[C@@H](OC)C(=O)[C@H](C)C[C@H](C)/C=C/C=C/C=C/1C` [Example 154], for which the IC50 in experiment [1], in experiment [2] and in experiment [3] was > 1000 nM throughout.
As for `CO[C@H]1C[C@@H]2CC[C@@H](C)[C@@](O)(O2)C(=O)C(=O)N2CCCC[C@H]2C(=O)O[C@H]([C@H](C)C[C@@H]2CC[C@H](n3cc(COC(=O)NCCOCCOCCOCCC(=O)NCCOCCOCCC(=O)NCCCCn4nc(-c5cc6cc(O)ccc6[nH]5)c5c(N)ncnc54)nn3)[C@H](OC)C2)C/C(=N/OCc2ccccc2)[C@H](C)/C=C(\C)[C@@H](O)[C@@H](OC)C(=O)[C@H](C)C[C@H](C)/C=C/C=C/C=C/1C` [Example 155], the IC50 in experiment [1], in experiment [2] and in experiment [3] was > 1000 nM in each case.
In the case of `CO[C@H]1C[C@@H]2CC[C@@H](C)[C@@](O)(O2)C(=O)C(=O)N2CCCC[C@H]2C(=O)O[C@H]([C@H](C)C[C@@H]2CC[C@H](n3cc(COC(=O)NCCOCCOCCOCCC(=O)NCCOCCOCCOCCC(=O)NCCCCn4nc(-c5ccc6oc(N)nc6c5)c5c(N)ncnc54)nn3)[C@H](OC)C2)C/C(=N/OCc2ccccc2)[C@H](C)/C=C(\C)[C@@H](O)[C@@H](OC)C(=O)[C@H](C)C[C@H](C)/C=C/C=C/C=C/1C` [Example 156], the IC50 in experiment [1], in experiment [2] and in experiment [3] was > 1000 nM in each case.
Consider `CO[C@H]1C[C@@H]2CC[C@@H](C)[C@@](O)(O2)C(=O)C(=O)N2CCCC[C@H]2C(=O)O[C@H]([C@H](C)C[C@@H]2CC[C@H](n3cc(COC(=O)NCCOCCOCCOCCC(=O)NCCOCCOCCOCCC(=O)NCCCCn4nc(-c5cc6cc(O)ccc6[nH]5)c5c(N)ncnc54)nn3)[C@H](OC)C2)C/C(=N/OCc2ccccc2)[C@H](C)/C=C(\C)[C@@H](O)[C@@H](OC)C(=O)[C@H](C)C[C@H](C)/C=C/C=C/C=C/1C` [Example 157], for which the IC50 in experiment [1], in experiment [2] and in experiment [3] was > 1000 nM each time.
As for `CO[C@H]1C[C@@H]2CC[C@@H](C)[C@@](O)(O2)C(=O)C(=O)N2CCCC[C@H]2C(=O)O[C@H]([C@H](C)C[C@@H]2CC[C@H](n3cc(COC(=O)NCCOCCOCCOCCC(=O)NCCOCCOCCC(=O)NCCCCn4nc(-c5ccc6oc(N)nc6c5)c5c(N)ncnc54)nn3)[C@H](OC)C2)C/C(=N/OC(C)(C)C)[C@H](C)/C=C(\C)[C@@H](O)[C@@H](OC)C(=O)[C@H](C)C[C@H](C)/C=C/C=C/C=C/1C` [Example 158], the IC50 in experiment [1], in experiment [2] and in experiment [3] was > 1000 nM throughout.
In the case of `CO[C@H]1C[C@@H]2CC[C@@H](C)[C@@](O)(O2)C(=O)C(=O)N2CCCC[C@H]2C(=O)O[C@H]([C@H](C)C[C@@H]2CC[C@H](n3cc(COC(=O)NCCOCCOCCOCCC(=O)NCCOCCOCCC(=O)NCCCCn4nc(-c5cc6cc(O)ccc6[nH]5)c5c(N)ncnc54)nn3)[C@H](OC)C2)C/C(=N/OC(C)(C)C)[C@H](C)/C=C(\C)[C@@H](O)[C@@H](OC)C(=O)[C@H](C)C[C@H](C)/C=C/C=C/C=C/1C` [Example 159], the IC50 in experiment [1] is > 1000 nM; in experiment [2] it was > 1000 nM; in experiment [3], < 1 nM.
`CO[C@H]1C[C@@H]2CC[C@@H](C)[C@@](O)(O2)C(=O)C(=O)N2CCCC[C@H]2C(=O)O[C@H]([C@H](C)C[C@@H]2CC[C@H](n3cc(COC(=O)NCCOCCOCCOCCC(=O)NCCOCCOCCOCCC(=O)NCCCCn4nc(-c5ccc6oc(N)nc6c5)c5c(N)ncnc54)nn3)[C@H](OC)C2)C/C(=N/OC(C)(C)C)[C@H](C)/C=C(\C)[C@@H](O)[C@@H](OC)C(=O)[C@H](C)C[C@H](C)/C=C/C=C/C=C/1C` [Example 160]: the IC50 in experiment [1] was 31.6 to 1000 nM; in experiment [2] it was > 1000 nM; in experiment [3], 10 to 1000 nM.
For `CO[C@H]1C[C@@H]2CC[C@@H](C)[C@@](O)(O2)C(=O)C(=O)N2CCCC[C@H]2C(=O)O[C@H]([C@H](C)C[C@@H]2CC[C@H](n3cc(COC(=O)NCCOCCOCCOCCC(=O)NCCOCCOCCOCCC(=O)NCCCCn4nc(-c5cc6cc(O)ccc6[nH]5)c5c(N)ncnc54)nn3)[C@H](OC)C2)C/C(=N/OC(C)(C)C)[C@H](C)/C=C(\C)[C@@H](O)[C@@H](OC)C(=O)[C@H](C)C[C@H](C)/C=C/C=C/C=C/1C` [Example 161], the IC50 in experiment [1], in experiment [2] and in experiment [3] was > 1000 nM each time.
As for `CO[C@H]1C[C@@H]2CC[C@@H](C)[C@@](O)(O2)C(=O)C(=O)N2CCCC[C@H]2C(=O)O[C@H]([C@H](C)C[C@@H]2CC[C@H](n3cc(CCCC(=O)NCCOCCOCCOCCC(=O)NCCOCCOCCC(=O)NCCCCn4nc(-c5ccc6oc(N)nc6c5)c5c(N)ncnc54)nn3)[C@H](OC)C2)C[C@@H](OC)[C@H](C)/C=C(\C)[C@@H](O)[C@@H](OC)C(=O)[C@H](C)C[C@H](C)/C=C/C=C/C=C/1C` [Example 162], the IC50 in experiment [1] was > 1000 nM; in experiment [2], 31.6 to 1000 nM; in experiment [3], 1 to 10 nM.
Regarding `CO[C@H]1C[C@@H]2CC[C@@H](C)[C@@](O)(O2)C(=O)C(=O)N2CCCC[C@H]2C(=O)O[C@H]([C@H](C)C[C@@H]2CC[C@H](n3cc(CCCC(=O)NCCOCCOCCOCCC(=O)NCCOCCOCCC(=O)NCCCCn4nc(-c5cc6cc(O)ccc6[nH]5)c5c(N)ncnc54)nn3)[C@H](OC)C2)C[C@@H](OC)[C@H](C)/C=C(\C)[C@@H](O)[C@@H](OC)C(=O)[C@H](C)C[C@H](C)/C=C/C=C/C=C/1C` [Example 163], the values for the IC50 in experiment [1], in experiment [2] and in experiment [3] were > 1000 nM, > 1000 nM and 10 to 1000 nM, respectively.
As for `CO[C@H]1C[C@@H]2CC[C@@H](C)[C@@](O)(O2)C(=O)C(=O)N2CCCC[C@H]2C(=O)O[C@H]([C@H](C)C[C@@H]2CC[C@H](n3cc(CCCC(=O)NCCOCCOCCOCCC(=O)NCCOCCOCCOCCC(=O)NCCCCn4nc(-c5ccc6oc(N)nc6c5)c5c(N)ncnc54)nn3)[C@H](OC)C2)C[C@@H](OC)[C@H](C)/C=C(\C)[C@@H](O)[C@@H](OC)C(=O)[C@H](C)C[C@H](C)/C=C/C=C/C=C/1C` [Example 164], the IC50 was 31.6 to 1000 nM in experiment [1], 3.16 to 31.6 nM in experiment [2] and < 1 nM in experiment [3].

(Values after patent US20230093861A1, “RAPAMYCIN ANALOGS AS MTOR INHIBITORS” (Revolution Medicines, Inc., priority 2017, published 2023).)
